This note sets out measurements from US8470847B2, “Derivatives of 7-alkynyl-1,8-naphthyridones, preparation method thereof and use of same in therapeutics” (Sanofi, priority 2007, dated 2013).

The target in one data set is VEGFR-3 (Homo sapiens (Human), UniProt P35916). Briefly: Measurement of the tyrosine kinase activity of VEGFR-3 by ELISA. Type of data set: biochemical. Conditions: VEGFR-3-TK, poly Glu-Tyr substrate, 30 μM ATP. On the technique in general: ELISA stands for enzyme-linked immunosorbent assay.
VEGFR-3, sequence (P35916 845-1173): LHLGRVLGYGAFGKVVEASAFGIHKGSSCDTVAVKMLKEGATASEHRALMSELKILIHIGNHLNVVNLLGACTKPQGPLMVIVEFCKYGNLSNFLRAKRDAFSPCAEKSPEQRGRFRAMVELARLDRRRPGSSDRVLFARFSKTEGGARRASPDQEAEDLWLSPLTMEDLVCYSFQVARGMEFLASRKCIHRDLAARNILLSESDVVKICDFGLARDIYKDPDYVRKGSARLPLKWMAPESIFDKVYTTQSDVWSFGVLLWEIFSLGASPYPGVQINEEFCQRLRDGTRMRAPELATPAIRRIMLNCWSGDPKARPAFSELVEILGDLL

Protocol for VEGFR-3: Measurement of the Tyrosine Kinase Activity of VEGFR-3 by ELISA
The enzymatic activity of VEGFR-3 is evaluated on an ELISA assay by measuring the intensity of phosphorylation of the substrate poly Glu-Tyr. […] The plate is then covered with an adhesive film and incubated overnight at 37° C. The following day, the wells are emptied by turning the plate over, washed by adding 300 μl of buffer solution (PBS+0.05% Tween 20) and dried by further incubation of the plate for 2 h at 37° C. A 90 μl reaction mixture is deposited onto each well. […] The plates are then incubated with gentle agitation at ambient temperature for 30 min. After 3 rinses with the buffer solution (300 μl/well per wash), 100 μl of anti-phosphotyrosine-HRP antibody ( 1/30 000) are added to each well and the plates are again incubated for 30 min at ambient temperature with gentle agitation. […] The total activity is evaluated by the difference in optical density obtained on samples incubated in the presence (stimulated) and in the absence (non-stimulated) of VEGFR-3.

A word on the melting point: it is the temperature of the solid-liquid transition. `CCn1c(N)c(C(=O)NC)c(=O)c2ccc(C#CC(O)(COC)C3CC3)nc21` (racemic) [Compound 50, (±)-2-Amino-7-(3-cyclopropyl-3-hydroxy-4-methoxybut-1-yn-1-yl)-1-ethyl-N-methyl-4-oxo-1,4-dihydro-1,8-naphthyridine-3-carboxamide] had a melting point of 208 °C.
As usually defined, the IC50 is the midpoint of a concentration-inhibition curve. Low values mean greater potency in that assay, high ones weaker potency in that assay. Compound `CCn1c(N)c(C(=O)NC)c(=O)c2ccc(C#CC(C)(O)COC)nc21` (single isomer, unassigned; (-)) [Compound 72, (−)-2-amino-1-ethyl-7-(3-hydroxy-4-methoxy-3-methylbut-1-yn-1-yl)-N-methyl-4-oxo-1,4-dihydro-1,8-naphthyridine-3-carboxamide] showed an IC50 against VEGFR-3 of 23 nM.
`CNC(=O)c1c(N)n(C2CCCC2)c2nc(C#CC(C)(O)CO)ccc2c1=O` (racemic) [Compound 53, (±)-2-Amino-1-cyclopentyl-7-(3,4-dihydroxy-3-methylbut-1-yn-1-yl)-N-methyl-4-oxo-1,4-dihydro-1,8-naphthyridine-3-carboxamide] displayed a melting point of 210.5 °C.
`CCn1c(N)c(C(=O)NC)c(=O)c2ccc(C#CC(O)C3CCCC3)nc21` (racemic) [Compound 10, (±)-2-Amino-7-(3-cyclopentyl-3-hydroxyprop-1-yn-1-yl)-1-ethyl-N-methyl-4-oxo-1,4-dihydro-1,8-naphthyridine-3-carboxamide] showed a melting point of 253 °C.
In turn, `CCn1c(N)c(C(=O)NC)c(=O)c2ccc(C#CC3(O)CCOC3)nc21` (racemic) [Compound 7, (±)-2-Amino-1-ethyl-7-[(3-hydroxytetrahydrofuran-3-yl)ethynyl]-N-methyl-4-oxo-1,4-dihydro-1,8-naphthyridine-3-carboxamide] came in with a melting point of 253 °C.
On to `CNC(=O)c1c(N)n(Cc2ccccn2)c2nc(C#CC(C)(O)COC)ccc2c1=O` (racemic), for which the melting point worked out at 169 °C.
Same read-out and setting: with `CCn1c(N)c(C(=O)NC)c(=O)c2ccc(C#CC(C)(O)c3cnccn3)nc21` (racemic) [Compound 48, (±)-2-Amino-1-ethyl-7-(3-hydroxy-3-pyrazin-2-ylbut-1-yn-1-yl)-N-methyl-4-oxo-1,4-dihydro-1,8-naphthyridine-3-carboxamide] the figure was 271 °C.
